Data on 20 compounds can be found in article PMC6736568, “Discovery of Novel Anti-cryptosporidial Activities From Natural Products by in vitro High-Throughput Phenotypic Screening” (Frontiers in Microbiology, 2019).

The term inhibition denotes the drop in the measured response relative to a control, in per cent.

Where a name gives a salt, the structure may show the parent alone. Read-outs that look alike come from different tables or passages of the source.

One data set deals with Cryptosporidium parvum. As to the kind of experiment: qRT-PCR assay of the growth of C. parvum in vitro in HCT-8 host cells (primary and secondary screening, EC50). Type of data set: cell-based. The conditions noted are these: Cryptosporidium parvum, HCT-8; for inhibition at 3.3 µM: secondary screening at 3.3 uM, read-out: % Inhibition (3.3 uM). A general note: Quantitative PCR measures a nucleic acid by following its amplification.

The nature of another data set: in vitro. Conditions: for cytotoxicity at 41 h, 10 µM: human.
Setting [1] is: primary screening at 10 uM, read-out: Inhibition (%).
[2] abbreviates: primary screening at 10 uM, treated vs control.

On to `CC1=CC(=O)C(C(C)C)=CC1=O` [THYMOQUINONE], for which, in the data set with Cryptosporidium parvum (setting [1]), the inhibition at 10 µM came to 3.13%. Moreover, the cytotoxicity at 41 h, 10 µM in “in vitro” was -5.8%. Further, the “Hs18S ΔCT” value in the data set with HCT-8 host cells (Hs18S) (human, 41 h, 10 μM) is recorded as -0.08.

With `CC[C@@]1(O)C(=O)OCc2c1cc1n(c2=O)Cc2cc3ccccc3nc2-1` [CAMPTOTHECIN], the inhibition at 10 µM in the data set with Cryptosporidium parvum (setting [1]) was 76%. Besides, in the data set on Cryptosporidium parvum, the inhibition at 3.3 µM was determined as 59%. In “in vitro”, the cytotoxicity at 10 µM stood at 60.8%. In the data set on HCT-8 host cells (Hs18S) (setting [2]), the “Hs18S ΔCT” value amounted to 1.35.

With `[H]/N=C(/N)N[C@H]1[C@H](O)[C@@H](O)[C@H](O[C@@H]2O[C@@H](C)[C@](O)(C=O)[C@H]2O[C@@H]2O[C@@H](CO)[C@H](O)[C@@H](O)[C@@H]2NC)[C@@H](N/C(N)=N\[H])[C@@H]1O` [STREPTOMYCIN SULFATE], in the data set with Cryptosporidium parvum (setting [1]), the inhibition at 10 µM was 15.4%. Further, the cytotoxicity at 41 h, 10 µM in the data set “in vitro” was -7.1%. In addition, in the data set on HCT-8 host cells (Hs18S) (human, 41 h, 10 μM), the “Hs18S ΔCT” value was -0.10.

With `O=C(O)[C@H]1O[C@@H](Oc2cc3oc(-c4ccccc4)cc(=O)c3c(O)c2O)[C@H](O)[C@@H](O)[C@@H]1O` [BAICALIN], in the data set with Cryptosporidium parvum (setting [1]), the inhibition at 10 µM is -13%. Moreover, in the data set “in vitro”, the cytotoxicity at 41 h, 10 µM is -17.1%. Further, the “Hs18S ΔCT” value with HCT-8 host cells (Hs18S) (setting [2]) was -0.23.

Take `O=C1C=CC(=O)c2c(O)cccc21` [JUGLONE]: in the data set on Cryptosporidium parvum (setting [1]), the inhibition at 10 µM was -17.7%. Also, the cytotoxicity at 10 µM in the data set “in vitro” was 11.2%. For the same compound, the “Hs18S ΔCT” value in the data set with HCT-8 host cells (Hs18S) was determined as 0.17.

For the compound `COC(=O)[C@]1(C)CC[C@]2(C)CC[C@]3(C)C4=CC=C5C(=CC(=O)C(O)=C5C)[C@]4(C)CC[C@@]3(C)[C@@H]2C1` [PRISTIMERIN], in the data set on Cryptosporidium parvum (setting [1]), the inhibition at 10 µM amounted to 94.7%. For the same compound, in the data set with Cryptosporidium parvum, the inhibition at 3.3 µM was determined as 30%. For the same compound, the cytotoxicity at 10 µM in “in vitro” was 31.6%. The “Hs18S ΔCT” value with HCT-8 host cells (Hs18S) (setting [2]) came out at 0.55.

Turning to `C=CC(C1=CC(=O)C(OC)=CC1=O)c1ccc(OC)cc1` (stereo not shown) [4,4'-DIMETHOXYDALBERGIONE], in the data set with Cryptosporidium parvum (setting [1]), the inhibition at 10 µM is -34.2%. Also, the cytotoxicity at 41 h, 10 µM in “in vitro” was -0.7%. The “Hs18S ΔCT” value in the data set on HCT-8 host cells (Hs18S) (human, 41 h, 10 μM) is -0.01.

For `Nc1ccn([C@@H]2O[C@H](CO)[C@@H](O)[C@H]2O)c(=O)n1` [CYTIDINE], the inhibition at 10 µM with Cryptosporidium parvum (setting [1]) came out at 36.7%. The cytotoxicity at 41 h, 10 µM in the data set “in vitro” is -44.6%. Besides, the “Hs18S ΔCT” value with HCT-8 host cells (Hs18S) (human, 41 h, 10 μM) is -0.53.

Turning to `CC(C)=CC1C(C(=O)O)C1(C)C` (stereo not shown) [CHRYSANTHEMIC ACID], the inhibition at 10 µM with Cryptosporidium parvum (setting [1]) was -13.4%. For the same compound, the cytotoxicity at 10 µM in the data set “in vitro” is -24.6%. In addition, the “Hs18S ΔCT” value in the data set with HCT-8 host cells (Hs18S) (setting [2]) is reported as -0.32.

Turning to `Nc1ccccc1C(=O)CC(N)C(=O)O` (stereo not shown) [KYNURENINE], the inhibition at 10 µM in the data set with Cryptosporidium parvum (setting [1]) was -14.4%. For the same compound, in the data set “in vitro”, the cytotoxicity at 10 µM was determined as 28.1%. In the data set on HCT-8 host cells (Hs18S) (setting [2]), the “Hs18S ΔCT” value was found to be 0.48.

As for `COC(=O)C[C@H]1C2(C)CC34OC5(C)O[C@@]6([C@H](OC(C)=O)C(OC(C)=O)[C@]7(C)C(/C(=C(/O)C(C)C)C(=O)O[C@H]7c7ccoc7)[C@@]6(O5)[C@H](OC(C)=O)[C@@]3(O)C2OC(=O)C(C)C)[C@]14C` (stereo partly shown) [BUSSEIN], in the data set on Cryptosporidium parvum (setting [1]), the inhibition at 10 µM was 85.1%. The inhibition at 3.3 µM in the data set with Cryptosporidium parvum was 34%. In the data set “in vitro”, the cytotoxicity at 41 h, 10 µM is -25.3%. Further, the “Hs18S ΔCT” value in the data set on HCT-8 host cells (Hs18S) (human, 41 h, 10 μM) is -0.33.

Regarding `C=C1C(N)CC2CC1C2(C)C` (stereo not drawn) [3-AMINO-beta-PINENE], the inhibition at 10 µM in the data set on Cryptosporidium parvum (setting [1]) came to 19.2%. Besides, the cytotoxicity at 41 h, 10 µM in “in vitro” was found to be 25.3%. In addition, in the data set with HCT-8 host cells (Hs18S) (human, 41 h, 10 μM), the “Hs18S ΔCT” value is 0.42.

On to `C[C@H](CCC(=O)O)[C@H]1CC[C@H]2[C@@H]3CC[C@@H]4C[C@H](O)CC[C@]4(C)[C@H]3C[C@H](O)[C@]12C` [DEOXYCHOLIC ACID], for which the inhibition at 10 µM in the data set with Cryptosporidium parvum (setting [1]) was -39.8%. Also, the cytotoxicity at 41 h, 10 µM in the data set “in vitro” was found to be 31.7%. The “Hs18S ΔCT” value with HCT-8 host cells (Hs18S) (human, 41 h, 10 μM) was 0.55.

For `CN(C)[C@@H]1C(O)=C(C(N)=O)C(=O)[C@@]2(O)C(O)=C3C(=O)c4c(O)ccc(Cl)c4[C@@](C)(O)[C@H]3C[C@@H]12` [CHLORTETRACYCLINE HYDROCHLORIDE], the inhibition at 10 µM with Cryptosporidium parvum (setting [1]) was -14.1%. For the same compound, in “in vitro”, the cytotoxicity at 10 µM is -2%. The “Hs18S ΔCT” value in the data set on HCT-8 host cells (Hs18S) (setting [2]) is listed as -0.03.

Take `CCOC(=O)c1c(C)cc(O)cc1O` [ORSELLINIC ACID, ETHYL ESTER]: the inhibition at 10 µM with Cryptosporidium parvum (setting [1]) was 23.7%. Moreover, the cytotoxicity at 41 h, 10 µM in “in vitro” was -8.3%. Also, in the data set with HCT-8 host cells (Hs18S) (human, 41 h, 10 μM), the “Hs18S ΔCT” value is listed as -0.12.

On to `C[C@H]1COC2=C1C(=O)C(=O)c1c2ccc2c1CCCC2(C)C` [CRYPTOTANSHINONE], for which, in the data set on Cryptosporidium parvum (setting [1]), the inhibition at 10 µM came out at 95.3%. Also, the inhibition at 3.3 µM in the data set with Cryptosporidium parvum is -85%. Besides, in “in vitro”, the cytotoxicity at 10 µM came to 11.9%. Also, the “Hs18S ΔCT” value in the data set with HCT-8 host cells (Hs18S) (setting [2]) is recorded as 0.18.

Regarding `CC(C)c1c(O)ccc2c1CC[C@H]1C(C)(C)CCC[C@]21C` [TOTAROL], the inhibition at 10 µM in the data set with Cryptosporidium parvum (setting [1]) was -9.45%. Besides, in “in vitro”, the cytotoxicity at 41 h, 10 µM is -28.4%. Also, in the data set with HCT-8 host cells (Hs18S) (human, 41 h, 10 μM), the “Hs18S ΔCT” value was -0.36.

Consider `C=C(C)[C@@H]1CC=C(C(=O)O)CC1` [PERILLIC ACID (-)], for which the inhibition at 10 µM in the data set on Cryptosporidium parvum (setting [1]) was -16.2%. The cytotoxicity at 10 µM in the data set “in vitro” stood at 8.9%. The “Hs18S ΔCT” value with HCT-8 host cells (Hs18S) (setting [2]) turned out to be 0.14.

As for `CC(=O)Oc1cc(OC(C)=O)c2c(c1)O[C@H](c1ccc(OC(C)=O)c(OC(C)=O)c1)[C@H](OC(C)=O)C2` [EPICATECHIN PENTAACETATE], the inhibition at 10 µM with Cryptosporidium parvum (setting [1]) is -52.5%. The cytotoxicity at 10 µM in the data set “in vitro” was -1.3%. For the same compound, the “Hs18S ΔCT” value in the data set on HCT-8 host cells (Hs18S) (setting [2]) is listed as -0.02.

`CNC[C@H](O)c1ccc(O)c(O)c1` [EPINEPHRINE BITARTRATE]: in the data set with Cryptosporidium parvum, the inhibition at 10 µM is -27.1%. Further, the cytotoxicity at 10 µM in “in vitro” stood at 2.6%. In addition, in the data set on HCT-8 host cells (Hs18S), the “Hs18S ΔCT” value stood at 0.04.
